Test results as given in ChEMBL document CHEMBL3352578 (J Med Chem, 2014).
Activity calls are given as the source filed them. The rule behind the calls is not given here.

Key:
[1] = Cmax in Sprague-Dawley rat at 10 mg/kg, po; format: ADME, organism-based; set-up: dose 10 mg/kg, route oral; settings: in vivo
[2] = Oral bioavailability in Sprague-Dawley rat at 10 mg/kg; format: ADME, organism-based; settings: in vivo
[3] = Ratio of drug level in brain to plasma in Swiss mouse at 10 mg/kg, sc after 1 hr; format: ADME, organism-based; set-up: dose 10 mg/kg, route subcutaneous; settings: brain and plasma, read-out: BPR
[4] = system: Rattus norvegicus; test: Positive allosteric modulation of mGlu2 receptor in po dosed Sprague-Dawley rat assessed effect on sleep-wake EEG paradigm after 20 hrs by electroencephalogram analysis; format: functional
[5] = system: Rattus norvegicus; test: Positive allosteric modulation of mGlu2 receptor in Sprague-Dawley rat sleep-wake EEG paradigm model assessed as reduction in REM sleep at 3 mg/kg, po after 4 hrs by electroencephalogram analysis; format: functional, organism-based; set-up: dose 3 mg/kg
[6] = system: Rattus norvegicus; test: Positive allosteric modulation of mGlu2 receptor in Sprague-Dawley rat sleep-wake EEG paradigm model assessed as effect on active wake stage at 3 mg/kg, po after 4 hrs by electroencephalogram analysis; format: functional, organism-based; set-up: dose 3 mg/kg
[7] = system: Rattus norvegicus; test: Positive allosteric modulation of mGlu2 receptor in Sprague-Dawley rat sleep-wake EEG paradigm model assessed as effect on passive wake stage at 3 mg/kg, po after 4 hrs by electroencephalogram analysis; format: functional, organism-based; set-up: dose 3 mg/kg
[8] = system: Rattus norvegicus; test: Positive allosteric modulation of mGlu2 receptor in Sprague-Dawley rat sleep-wake EEG paradigm model assessed as effect on intermediate state at 3 mg/kg, po after 4 hrs by electroencephalogram analysis; format: functional, organism-based; set-up: dose 3 mg/kg
[9] = system: Rattus norvegicus; test: Positive allosteric modulation of mGlu2 receptor in Sprague-Dawley rat sleep-wake EEG paradigm model assessed as effect on light sleep stage at 3 mg/kg, po after 4 hrs by electroencephalogram analysis; format: functional, organism-based; set-up: dose 3 mg/kg
[10] = system: Rattus norvegicus; test: Positive allosteric modulation of mGlu2 receptor in Sprague-Dawley rat sleep-wake EEG paradigm model assessed as effect on deep sleep stage at 3 mg/kg, po after 4 hrs by electroencephalogram analysis; format: functional, organism-based; set-up: dose 3 mg/kg
[11] = Dissociation constant, pKa of the compound; format: physicochemical
[12] = Lipophilicity, log P of the compound at pH 6.8; format: physicochemical; settings: buffer
[13] = target: Metabotropic glutamate receptor 1 (Homo sapiens) (UniProt Q13255); test: Binding affinity to human mGlu1 receptor expressed in HEK293 cells assessed as calcium mobilization by [35S]GTPgamma binding assay; format: functional, cell-based
[14] = target: Metabotropic glutamate receptor 3 (Homo sapiens) (UniProt Q14832); test: Binding affinity to human mGlu3 receptor expressed in HEK293 cells assessed as calcium mobilization by [35S]GTPgamma binding assay; format: functional, cell-based
[15] = target: Metabotropic glutamate receptor 5 (Homo sapiens) (UniProt P41594); test: Binding affinity to human mGlu5 receptor expressed in HEK293 cells assessed as calcium mobilization by [35S]GTPgamma binding assay; format: functional, cell-based
[16] = target: Metabotropic glutamate receptor 4 (Homo sapiens) (UniProt Q14833); test: Binding affinity to human mGlu4 receptor expressed in […] L929 cells assessed as calcium mobilization by [35S]GTPgamma binding assay; format: functional, cell-based
[17] = target: Metabotropic glutamate receptor 6 (Rattus norvegicus) (UniProt P35349); test: Binding affinity to rat mGlu6 receptor expressed in CHO cells assessed as calcium mobilization by [35S]GTPgamma binding assay; format: functional, cell-based
[18] = Apparent permeability from apical to basolateral side in human Caco2 cells; format: ADME, cell-based; settings: Caco-2
[19] = Apparent permeability from basolateral to apical side in human Caco2 cells; format: ADME, cell-based; settings: Caco-2
[20] = Volume of distribution at steady state in Sprague-Dawley rat at 2.5 mg/kg, iv; format: ADME, organism-based; set-up: dose 2.5 mg/kg, route intravenous; settings: in vivo, read-out: Vdss
[21] = Clearance in dog at 1 mg/kg, iv; format: ADME, organism-based, Canis lupus familiaris; set-up: dose 1 mg/kg, route intravenous; settings: in vivo
[22] = Volume of distribution at steady state in dog at 1 mg/kg, iv; format: ADME, organism-based, Canis lupus familiaris; set-up: dose 1 mg/kg, route intravenous; settings: in vivo, read-out: Vdss
[23] = Tmax in dog at 1 mg/kg, iv; format: ADME, organism-based, Canis lupus familiaris; set-up: dose 1 mg/kg, route intravenous; settings: in vivo
[24] = Elimination half life in dog at 1 mg/kg, iv; format: ADME, organism-based, Canis lupus familiaris; set-up: dose 1 mg/kg, route intravenous; settings: in vivo, read-out: beta t1/2 (converted)
[25] = AUC (0 to infinity) in dog at 2.5 mg/kg, po; format: ADME, organism-based, Canis lupus familiaris; set-up: time infinity, dose 2.5 mg/kg, route oral; settings: plasma
[26] = Cmax in dog at 2.5 mg/kg, po; format: ADME, organism-based, Canis lupus familiaris; set-up: dose 2.5 mg/kg, route oral; settings: in vivo
[27] = Oral bioavailability in dog at 2.5 mg/kg; format: ADME, organism-based, Canis lupus familiaris; settings: in vivo
[28] = system: Rattus norvegicus; test: Positive allosteric modulation of mGlu2 receptor in po dosed Sprague-Dawley rat assessed free plasma drug level causing effect on sleep-wake EEG paradigm after 20 hrs by electroencephalogram analysis; format: functional
[29] = Metabolic stability in human liver microsomes assessed as compound metabolized at 5 uM after 15 mins by MS/MS analysis in presence of NADPH; format: ADME; settings: read-out: Drug metabolism
[30] = Metabolic stability in rat liver microsomes assessed as compound metabolized at 5 uM after 15 mins by MS/MS analysis in presence of NADPH; format: ADME; settings: read-out: Drug metabolism
[31] = Clearance in Sprague-Dawley rat at 2.5 mg/kg, iv; format: ADME, organism-based; set-up: dose 2.5 mg/kg, route intravenous; settings: in vivo
[32] = Elimination half life in Sprague-Dawley rat at 2.5 mg/kg, iv; format: ADME, organism-based; set-up: dose 2.5 mg/kg, route intravenous; settings: in vivo, read-out: beta t1/2 (converted)
[33] = Tmax in Sprague-Dawley rat at 2.5 mg/kg, iv; format: ADME, organism-based; set-up: dose 2.5 mg/kg, route intravenous; settings: in vivo
[34] = AUC (0 to infinity) in Sprague-Dawley rat at 10 mg/kg, po; format: ADME, organism-based; set-up: time infinity, dose 10 mg/kg, route oral; settings: plasma

Sequence of Metabotropic glutamate receptor 4 (Homo sapiens) (Q14833 whole entry): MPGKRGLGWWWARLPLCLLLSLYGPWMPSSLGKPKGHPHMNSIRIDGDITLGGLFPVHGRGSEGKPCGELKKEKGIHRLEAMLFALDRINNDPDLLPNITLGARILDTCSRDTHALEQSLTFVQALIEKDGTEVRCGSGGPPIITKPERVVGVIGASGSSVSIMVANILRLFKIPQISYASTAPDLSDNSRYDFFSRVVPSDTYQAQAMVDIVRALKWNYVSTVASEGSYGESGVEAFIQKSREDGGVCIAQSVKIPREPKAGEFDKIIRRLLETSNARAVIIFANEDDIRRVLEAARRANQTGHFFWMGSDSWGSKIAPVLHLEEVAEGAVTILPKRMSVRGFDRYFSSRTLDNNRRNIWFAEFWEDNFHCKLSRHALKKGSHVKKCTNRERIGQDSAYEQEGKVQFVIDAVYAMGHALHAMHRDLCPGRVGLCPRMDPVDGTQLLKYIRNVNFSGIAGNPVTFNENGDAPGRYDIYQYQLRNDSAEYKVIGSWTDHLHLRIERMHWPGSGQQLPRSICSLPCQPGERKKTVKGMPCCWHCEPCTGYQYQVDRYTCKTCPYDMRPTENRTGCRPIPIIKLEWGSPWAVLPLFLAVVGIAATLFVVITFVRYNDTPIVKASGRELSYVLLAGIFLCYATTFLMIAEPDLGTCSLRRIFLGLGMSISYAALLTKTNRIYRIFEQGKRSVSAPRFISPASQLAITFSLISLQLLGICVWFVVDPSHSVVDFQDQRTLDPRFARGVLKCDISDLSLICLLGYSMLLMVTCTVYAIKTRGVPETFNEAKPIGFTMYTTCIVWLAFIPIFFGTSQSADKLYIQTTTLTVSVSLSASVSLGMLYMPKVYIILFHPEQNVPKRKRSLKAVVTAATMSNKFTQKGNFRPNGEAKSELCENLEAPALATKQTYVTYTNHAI
Sequence of Metabotropic glutamate receptor 6 (Rattus norvegicus) (P35349 whole entry): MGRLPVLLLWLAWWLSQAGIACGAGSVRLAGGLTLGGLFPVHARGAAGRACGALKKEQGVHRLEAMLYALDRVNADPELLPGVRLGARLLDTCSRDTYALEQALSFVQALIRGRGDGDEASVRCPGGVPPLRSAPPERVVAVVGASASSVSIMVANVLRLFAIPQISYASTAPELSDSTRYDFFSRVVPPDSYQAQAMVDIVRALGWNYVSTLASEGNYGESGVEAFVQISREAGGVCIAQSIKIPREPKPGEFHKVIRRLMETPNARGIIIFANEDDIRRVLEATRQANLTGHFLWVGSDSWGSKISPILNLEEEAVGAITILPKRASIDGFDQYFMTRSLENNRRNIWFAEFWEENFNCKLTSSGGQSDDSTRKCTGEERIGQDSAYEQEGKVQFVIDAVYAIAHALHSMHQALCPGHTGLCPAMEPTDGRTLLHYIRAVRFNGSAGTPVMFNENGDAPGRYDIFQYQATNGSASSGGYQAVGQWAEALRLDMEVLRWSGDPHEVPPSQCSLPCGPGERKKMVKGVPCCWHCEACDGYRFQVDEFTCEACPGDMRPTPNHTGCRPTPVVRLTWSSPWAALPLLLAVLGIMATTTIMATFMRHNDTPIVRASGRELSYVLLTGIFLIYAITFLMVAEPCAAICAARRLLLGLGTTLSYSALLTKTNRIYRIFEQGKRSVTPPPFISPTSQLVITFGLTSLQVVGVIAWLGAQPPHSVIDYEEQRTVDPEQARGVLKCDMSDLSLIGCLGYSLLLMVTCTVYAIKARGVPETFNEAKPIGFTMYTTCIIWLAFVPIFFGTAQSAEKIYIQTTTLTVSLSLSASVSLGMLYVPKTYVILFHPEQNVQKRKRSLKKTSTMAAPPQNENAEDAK
Sequence of Metabotropic glutamate receptor 5 (Homo sapiens) (P41594 21-1212 limits assumed): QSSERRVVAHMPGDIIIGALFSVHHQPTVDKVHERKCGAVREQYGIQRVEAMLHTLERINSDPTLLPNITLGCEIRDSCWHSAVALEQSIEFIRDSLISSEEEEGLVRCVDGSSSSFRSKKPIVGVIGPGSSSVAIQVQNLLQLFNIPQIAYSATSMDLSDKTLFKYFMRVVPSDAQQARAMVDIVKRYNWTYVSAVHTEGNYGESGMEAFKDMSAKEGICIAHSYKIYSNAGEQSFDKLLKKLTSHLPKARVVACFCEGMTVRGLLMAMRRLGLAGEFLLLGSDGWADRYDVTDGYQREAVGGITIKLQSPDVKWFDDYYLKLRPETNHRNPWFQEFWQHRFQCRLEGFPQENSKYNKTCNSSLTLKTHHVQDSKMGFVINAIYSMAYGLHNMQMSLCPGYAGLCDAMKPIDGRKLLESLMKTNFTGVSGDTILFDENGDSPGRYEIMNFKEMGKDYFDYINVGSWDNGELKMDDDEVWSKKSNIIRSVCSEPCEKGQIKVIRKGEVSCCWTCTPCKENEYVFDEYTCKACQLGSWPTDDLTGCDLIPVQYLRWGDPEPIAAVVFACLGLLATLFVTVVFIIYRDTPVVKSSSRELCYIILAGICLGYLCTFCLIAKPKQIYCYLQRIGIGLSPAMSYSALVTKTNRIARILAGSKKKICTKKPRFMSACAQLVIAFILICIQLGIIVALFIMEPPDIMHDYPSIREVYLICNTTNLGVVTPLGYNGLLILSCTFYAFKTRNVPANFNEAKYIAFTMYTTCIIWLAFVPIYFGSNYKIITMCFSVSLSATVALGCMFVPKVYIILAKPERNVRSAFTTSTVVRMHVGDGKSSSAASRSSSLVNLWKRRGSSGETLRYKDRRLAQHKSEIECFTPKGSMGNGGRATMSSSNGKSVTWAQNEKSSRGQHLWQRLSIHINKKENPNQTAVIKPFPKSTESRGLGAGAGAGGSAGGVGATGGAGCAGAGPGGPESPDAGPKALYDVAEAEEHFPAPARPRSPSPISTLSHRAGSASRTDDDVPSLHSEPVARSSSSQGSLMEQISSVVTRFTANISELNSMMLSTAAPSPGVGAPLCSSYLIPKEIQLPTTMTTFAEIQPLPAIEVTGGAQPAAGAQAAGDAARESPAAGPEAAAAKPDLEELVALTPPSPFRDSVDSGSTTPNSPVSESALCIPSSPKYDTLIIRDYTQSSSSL
Sequence of Metabotropic glutamate receptor 1 (Homo sapiens) (Q13255 19-1194 limits assumed): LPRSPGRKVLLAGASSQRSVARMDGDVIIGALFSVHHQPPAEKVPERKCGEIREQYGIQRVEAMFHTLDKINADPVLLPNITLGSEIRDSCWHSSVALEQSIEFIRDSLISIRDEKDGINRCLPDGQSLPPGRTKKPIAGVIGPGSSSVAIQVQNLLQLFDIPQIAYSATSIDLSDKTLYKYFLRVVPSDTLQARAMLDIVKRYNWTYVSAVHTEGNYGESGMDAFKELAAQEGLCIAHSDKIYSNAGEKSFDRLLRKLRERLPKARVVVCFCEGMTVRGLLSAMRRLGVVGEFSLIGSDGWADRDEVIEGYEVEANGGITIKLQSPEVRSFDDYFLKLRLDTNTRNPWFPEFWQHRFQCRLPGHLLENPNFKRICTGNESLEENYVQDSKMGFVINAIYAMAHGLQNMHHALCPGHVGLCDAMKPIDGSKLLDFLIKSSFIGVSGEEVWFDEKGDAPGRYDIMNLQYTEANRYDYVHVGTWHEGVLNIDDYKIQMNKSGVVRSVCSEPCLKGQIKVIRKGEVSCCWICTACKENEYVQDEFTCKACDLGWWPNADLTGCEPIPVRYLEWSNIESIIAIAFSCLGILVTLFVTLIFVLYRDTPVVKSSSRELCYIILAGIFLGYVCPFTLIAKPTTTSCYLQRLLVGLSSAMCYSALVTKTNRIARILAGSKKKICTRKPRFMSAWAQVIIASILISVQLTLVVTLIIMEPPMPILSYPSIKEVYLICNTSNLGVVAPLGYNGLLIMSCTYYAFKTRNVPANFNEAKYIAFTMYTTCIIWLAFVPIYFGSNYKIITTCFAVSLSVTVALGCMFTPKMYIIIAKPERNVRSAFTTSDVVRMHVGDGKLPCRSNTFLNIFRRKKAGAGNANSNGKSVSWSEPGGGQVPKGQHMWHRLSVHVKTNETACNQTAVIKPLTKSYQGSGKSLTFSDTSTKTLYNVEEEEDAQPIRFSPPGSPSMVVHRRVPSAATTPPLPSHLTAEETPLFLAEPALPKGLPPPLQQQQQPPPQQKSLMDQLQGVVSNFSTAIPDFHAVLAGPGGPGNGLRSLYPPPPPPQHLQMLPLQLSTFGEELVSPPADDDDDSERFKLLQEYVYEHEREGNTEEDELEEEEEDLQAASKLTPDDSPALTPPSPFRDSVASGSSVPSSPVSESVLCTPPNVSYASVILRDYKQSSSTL
Sequence of Metabotropic glutamate receptor 3 (Homo sapiens) (Q14832 23-879 limits assumed): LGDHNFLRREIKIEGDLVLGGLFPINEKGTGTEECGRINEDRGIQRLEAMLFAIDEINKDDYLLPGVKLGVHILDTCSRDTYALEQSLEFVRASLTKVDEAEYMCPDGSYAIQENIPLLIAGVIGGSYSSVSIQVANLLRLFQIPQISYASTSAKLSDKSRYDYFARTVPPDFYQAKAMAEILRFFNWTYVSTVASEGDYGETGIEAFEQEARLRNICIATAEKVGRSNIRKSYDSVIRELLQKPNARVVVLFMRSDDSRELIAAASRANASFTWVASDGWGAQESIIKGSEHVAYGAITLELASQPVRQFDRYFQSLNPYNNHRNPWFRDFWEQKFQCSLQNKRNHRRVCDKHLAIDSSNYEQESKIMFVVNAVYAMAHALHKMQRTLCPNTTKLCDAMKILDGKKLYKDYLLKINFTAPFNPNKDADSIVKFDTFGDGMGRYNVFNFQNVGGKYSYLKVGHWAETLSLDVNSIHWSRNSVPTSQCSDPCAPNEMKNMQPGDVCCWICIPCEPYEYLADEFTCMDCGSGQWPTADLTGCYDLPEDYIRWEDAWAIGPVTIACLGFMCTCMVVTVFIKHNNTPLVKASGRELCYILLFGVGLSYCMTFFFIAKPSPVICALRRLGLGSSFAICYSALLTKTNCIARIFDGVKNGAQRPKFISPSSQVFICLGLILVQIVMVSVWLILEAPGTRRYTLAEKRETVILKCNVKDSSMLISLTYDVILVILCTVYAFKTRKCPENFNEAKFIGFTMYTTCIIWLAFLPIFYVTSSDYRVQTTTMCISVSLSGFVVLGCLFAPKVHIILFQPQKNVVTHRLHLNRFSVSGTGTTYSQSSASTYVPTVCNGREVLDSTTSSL

SMILES: CCCCn1ccc(N2CCC(c3ccccc3)CC2)c(Cl)c1=O [JNJ-40411813]
- Cmax [1]: 938 ng/mL
- bioavailability [2]: 31%
- Kp at 1 h [3]: 1
- MEC [4]: 281 ng/mL
- minimal effective dose ([4]; Rattus norvegicus, Sprague-Dawley, po, 20 h, read-out: MED): 3 mg/kg
- Activity [5]: Active
- Activity [6]: inactive
- Activity [7]: inactive
- Activity [8]: inactive
- Activity [9]: inactive
- Activity [10]: inactive
- pKa [11]: < 2
- logD [12]: 4.6
- Activity [13]: inactive
- Activity [14]: inactive
- Activity [15]: inactive
- Activity [16]: inactive
- Activity [17]: inactive
- Papp A→B [18]: 12 ×10⁻⁶ cm/s
- Papp B→A [19]: 6 ×10⁻⁶ cm/s
- Vd [20]: 2.3 L/kg
- clearance [21]: 23 mL/min/kg
- Vd [22]: 1.8 L/kg
- Tmax [23]: 0.5 h
- half-life [24]: 3.7 h
- AUC(0-inf) [25]: 743 ng·h/mL
- Cmax [26]: 373 ng/mL
- bioavailability [27]: 20%
- fMEC [28]: 0.9 ng/mL
- metabolised at 0.25 h, 5 µM [29]: 23%
- metabolised at 0.25 h, 5 µM [30]: 53%
- clearance [31]: 23 mL/min/kg
- half-life [32]: 2.3 h
- Tmax [33]: 0.5 h
- AUC(0-inf) [34]: 2250 ng·h/mL
